{
  "source": "patent US20250154686A1",
  "about": "“COMPOUND LIBRARY” (CHUGAI SEIYAKU KABUSHIKI KAISHA, priority 2021, published 2025)",
  "target": "T1, Bcl-2 protein (Recombinant Human Bcl-2 Protein) (Homo sapiens, UniProt P10415)",
  "T1 construct": "purchased Novus Biologicals NBP2-34889",
  "T1 sequence (P10415 whole entry)": "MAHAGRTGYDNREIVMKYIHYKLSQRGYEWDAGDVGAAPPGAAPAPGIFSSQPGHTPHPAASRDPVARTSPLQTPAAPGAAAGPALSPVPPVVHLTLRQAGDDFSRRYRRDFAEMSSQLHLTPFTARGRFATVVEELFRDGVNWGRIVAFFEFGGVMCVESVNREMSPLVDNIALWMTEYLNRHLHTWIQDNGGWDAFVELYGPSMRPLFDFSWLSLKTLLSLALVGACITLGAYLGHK",
  "experiment": "AS-MS evaluation of binding of the Example 4 mixture library (1200 compounds/well) to Bcl-2, ASMS ratio (%)",
  "settings": "mixture library, value belongs to the MS peak assigned to the compound; for ASMS ratio (%) n = 1: replicate n = 1; for ASMS ratio (%) n = 2: replicate n = 2",
  "summary_of_the_method": "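Affinity-selection MS: after spin-column size exclusion and organic extraction, LC/MS signals give an ASMS ratio (%), referenced to protein-free samples with and without column treatment. Binding step combined 20 μM human Bcl-2 with the 1200-compound pool at 20 nM per compound, 1 h, 23° C., dark, pH 7.4 Tris-HCl/NaCl/Tween-20/DTT.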",
  "data": [
    {"compound": "CCOc1cncc(-c2cnn(-c3cc(C(=O)N4CCN(c5ccc(C(=O)NS(=O)(=O)C(C)(C)C)cc5)CC4)cc(C(F)(F)F)c3)c2)c1", "note": "[Compound B2L044-01, N-tert-Butylsulfonyl-4-[4-[3-[4-(5-ethoxypyridin-3-yl)pyrazol-1-yl]-5-(trifluoromethyl)benzoyl]piperazin-1-yl]benzamide]", "values": [
      {"measurement": "ASMS ratio (%) n = 1", "result": 0.0, "unit": "%"},
      {"measurement": "ASMS ratio (%) n = 2", "result": 0.0, "unit": "%"}
    ]},
    {"compound": "CCOc1cccc(-c2ccccc2CN2CCN(c3ccc(C(=O)NS(=O)(=O)C(C)(C)C)cc3)CC2)c1", "note": "[Compound B2L045-01, N-tert-Butylsulfonyl-4-[4-[[2-(3-ethoxyphenyl)phenyl]methyl]piperazin-1-yl]benzamide]", "values": [
      {"measurement": "ASMS ratio (%) n = 1", "result": 0.0, "unit": "%"},
      {"measurement": "ASMS ratio (%) n = 2", "result": 0.0, "unit": "%"}
    ]},
    {"compound": "CCOc1cncc(-c2ccccc2CN2CCN(c3ccc(C(=O)NS(=O)(=O)C(C)(C)C)cc3)CC2)c1", "note": "[Compound B2L046-01]", "values": [
      {"measurement": "ASMS ratio (%) n = 1", "result": 0.0, "unit": "%"},
      {"measurement": "ASMS ratio (%) n = 2", "result": 0.0, "unit": "%"}
    ]},
    {"compound": "CCOc1cccc(-c2ccc(CN3CCN(c4ccc(C(=O)NS(=O)(=O)C(C)(C)C)cc4)CC3)cc2C)c1", "note": "[Compound B2L047-01, N-tert-Butylsulfonyl-4-[4-[[4-(3-ethoxyphenyl)-3-methylphenyl]methyl]piperazin-1-yl]benzamide]", "values": [
      {"measurement": "ASMS ratio (%) n = 1", "result": 0.0, "unit": "%"},
      {"measurement": "ASMS ratio (%) n = 2", "result": 0.0, "unit": "%"}
    ]},
    {"compound": "CCOc1cncc(-c2ccc(CN3CCN(c4ccc(C(=O)NS(=O)(=O)C(C)(C)C)cc4)CC3)cc2C)c1", "note": "[Compound B2L048-01, N-tert-Butylsulfonyl-4-[4-[[4-(5-ethoxypyridin-3-yl)-3-methylphenyl]methyl]piperazin-1-yl]benzamide]", "values": [
      {"measurement": "ASMS ratio (%) n = 1", "result": 3.9, "unit": "%"},
      {"measurement": "ASMS ratio (%) n = 2", "result": "−5.0", "unit": "%"}
    ]},
    {"compound": "CCOc1cccc(-c2ccc(CN3CCN(c4ccc(C(=O)NS(=O)(=O)C(C)(C)C)cc4)CC3)c(CC)c2)c1", "note": "[Compound B2L049-01, N-tert-Butylsulfonyl-4-[4-[[4-(3-ethoxyphenyl)-2-ethylphenyl]methyl]piperazin-1-yl]benzamide]", "values": [
      {"measurement": "ASMS ratio (%) n = 2", "result": 0.0, "unit": "%"}
    ]},
    {"compound": "CCOc1cncc(-c2ccc(CN3CCN(c4ccc(C(=O)NS(=O)(=O)C(C)(C)C)cc4)CC3)c(CC)c2)c1", "note": "[Compound B2L050-01, N-tert-Butylsulfonyl-4-[4-[[4-(5-ethoxypyridin-3-yl)-2-ethylphenyl]methyl]piperazin-1-yl]benzamide]", "values": [
      {"measurement": "ASMS ratio (%) n = 1", "result": 0.0, "unit": "%"},
      {"measurement": "ASMS ratio (%) n = 2", "result": 0.0, "unit": "%"}
    ]},
    {"compound": "CCOc1cccc(-c2ccc(CN3CCN(c4ccc(C(=O)NS(=O)(=O)C(C)(C)C)cc4)CC3)cc2F)c1", "note": "[Compound B2L051-01, N-tert-Butylsulfonyl-4-[4-[[4-(3-ethoxyphenyl)-3-fluorophenyl]methyl]piperazin-1-yl]benzamide]", "values": [
      {"measurement": "ASMS ratio (%) n = 1", "result": 0.0, "unit": "%"},
      {"measurement": "ASMS ratio (%) n = 2", "result": 0.0, "unit": "%"}
    ]},
    {"compound": "CCOc1cncc(-c2ccc(CN3CCN(c4ccc(C(=O)NS(=O)(=O)C(C)(C)C)cc4)CC3)cc2F)c1", "note": "[Compound B2L052-01, N-tert-Butylsulfonyl-4-[4-[[4-(5-ethoxypyridin-3-yl)-3-fluorophenyl]methyl]piperazin-1-yl]benzamide]", "values": [
      {"measurement": "ASMS ratio (%) n = 1", "result": 2.7, "unit": "%"},
      {"measurement": "ASMS ratio (%) n = 2", "result": 1.0, "unit": "%"}
    ]},
    {"compound": "CCOc1cccc(-c2ccc(CN3CCN(c4ccc(C(=O)NS(=O)(=O)C(C)(C)C)cc4)CC3)c(OC)c2)c1", "note": "[Compound B2L053-01]", "values": [
      {"measurement": "ASMS ratio (%) n = 1", "result": 0.0, "unit": "%"},
      {"measurement": "ASMS ratio (%) n = 2", "result": 0.0, "unit": "%"}
    ]},
    {"compound": "CCOc1cncc(-c2ccc(CN3CCN(c4ccc(C(=O)NS(=O)(=O)C(C)(C)C)cc4)CC3)c(OC)c2)c1", "note": "[Compound B2L054-01]", "values": [
      {"measurement": "ASMS ratio (%) n = 1", "result": 0.0, "unit": "%"},
      {"measurement": "ASMS ratio (%) n = 2", "result": 0.0, "unit": "%"}
    ]},
    {"compound": "CCOc1cccc(-c2cc(CN3CCN(c4ccc(C(=O)NS(=O)(=O)C(C)(C)C)cc4)CC3)cc(OCC)c2)c1", "note": "[Compound B2L055-01, N-tert-Butylsulfonyl-4-[4-[[3-ethoxy-5-(3-ethoxyphenyl)phenyl]methyl]piperazin-1-yl]benzamide]", "values": [
      {"measurement": "ASMS ratio (%) n = 1", "result": 0.0, "unit": "%"},
      {"measurement": "ASMS ratio (%) n = 2", "result": 0.0, "unit": "%"}
    ]},
    {"compound": "CCOc1cncc(-c2cc(CN3CCN(c4ccc(C(=O)NS(=O)(=O)C(C)(C)C)cc4)CC3)cc(OCC)c2)c1", "note": "[Compound B2L056-01]", "values": [
      {"measurement": "ASMS ratio (%) n = 1", "result": 0.0, "unit": "%"},
      {"measurement": "ASMS ratio (%) n = 2", "result": 0.0, "unit": "%"}
    ]},
    {"compound": "CCOc1cccc(-c2cc(CN3CCN(c4ccc(C(=O)NS(=O)(=O)C(C)(C)C)cc4)CC3)cc(OC(C)C)c2)c1", "note": "[Compound B2L057-01, N-tert-Butylsulfonyl-4-[4-[3-(3-ethoxyphenyl)-5-propan-2-yloxyphenylmethyl]piperazin-1-yl]benzamide]", "values": [
      {"measurement": "ASMS ratio (%) n = 1", "result": 0.0, "unit": "%"},
      {"measurement": "ASMS ratio (%) n = 2", "result": 0.0, "unit": "%"}
    ]},
    {"compound": "CCOc1cncc(-c2cc(CN3CCN(c4ccc(C(=O)NS(=O)(=O)C(C)(C)C)cc4)CC3)cc(OC(C)C)c2)c1", "note": "[Compound B2L058-01]", "values": [
      {"measurement": "ASMS ratio (%) n = 1", "result": 0.0, "unit": "%"},
      {"measurement": "ASMS ratio (%) n = 2", "result": 0.0, "unit": "%"}
    ]},
    {"compound": "CCOc1cccc(-c2cc(OC)c(CN3CCN(c4ccc(C(=O)NS(=O)(=O)C(C)(C)C)cc4)CC3)c(OC)c2)c1", "note": "[Compound B2L059-01, N-tert-Butylsulfonyl-4-[4-[[4-(3-ethoxyphenyl)-2,6-dimethoxyphenyl]methyl]piperazin-1-yl]benzamide]", "values": [
      {"measurement": "ASMS ratio (%) n = 1", "result": 0.0, "unit": "%"},
      {"measurement": "ASMS ratio (%) n = 2", "result": 0.0, "unit": "%"}
    ]},
    {"compound": "CCOc1cncc(-c2cc(OC)c(CN3CCN(c4ccc(C(=O)NS(=O)(=O)C(C)(C)C)cc4)CC3)c(OC)c2)c1", "note": "[Compound B2L060-01]", "values": [
      {"measurement": "ASMS ratio (%) n = 2", "result": 0.0, "unit": "%"}
    ]},
    {"compound": "CCOc1cccc(-c2cc(CN3CCN(c4ccc(C(=O)NS(=O)(=O)C(C)(C)C)cc4)CC3)cc(C(F)(F)F)c2)c1", "note": "[Compound B2L061-01, N-tert-Butylsulfonyl-4-[4-[[3-(3-ethoxyphenyl)-5-(trifluoromethyl)phenyl]methyl]piperazin-1-yl]benzamide]", "values": [
      {"measurement": "ASMS ratio (%) n = 1", "result": 4.6, "unit": "%"},
      {"measurement": "ASMS ratio (%) n = 2", "result": "−11.1", "unit": "%"}
    ]},
    {"compound": "CCOc1cncc(-c2cc(CN3CCN(c4ccc(C(=O)NS(=O)(=O)C(C)(C)C)cc4)CC3)cc(C(F)(F)F)c2)c1", "note": "[Compound B2L062-01, N-tert-Butylsulfonyl-4-[4-[[3-(5-ethoxypyridin-3-yl)-5-(trifluoromethyl)phenyl]methyl]piperazin-1-yl]benzamide]", "values": [
      {"measurement": "ASMS ratio (%) n = 1", "result": 0.0, "unit": "%"},
      {"measurement": "ASMS ratio (%) n = 2", "result": 0.0, "unit": "%"}
    ]},
    {"compound": "CCOc1cccc(-c2cc(CN3CCN(c4ccc(C(=O)NS(=O)(=O)C(C)(C)C)cc4)CC3)cc(OC(F)(F)F)c2)c1", "note": "[Compound B2L063-01, N-tert-Butylsulfonyl-4-[4-[[3-(3-ethoxyphenyl)-5-(trifluoromethoxy)phenyl]methyl]piperazin-1-yl]benzamide]", "values": [
      {"measurement": "ASMS ratio (%) n = 1", "result": 0.0, "unit": "%"},
      {"measurement": "ASMS ratio (%) n = 2", "result": 0.0, "unit": "%"}
    ]},
    {"compound": "CCOc1cncc(-c2cc(CN3CCN(c4ccc(C(=O)NS(=O)(=O)C(C)(C)C)cc4)CC3)cc(OC(F)(F)F)c2)c1", "note": "[Compound B2L064-01]", "values": [
      {"measurement": "ASMS ratio (%) n = 1", "result": 0.0, "unit": "%"},
      {"measurement": "ASMS ratio (%) n = 2", "result": 0.0, "unit": "%"}
    ]},
    {"compound": "CCOc1cncc(-c2ccc(CN3CCN(c4ccc(C(=O)NS(=O)(=O)C(C)(C)C)cc4)CC3)c3ccccc23)c1", "note": "[Compound B2L066-01, N-tert-Butylsulfonyl-4-[4-[[4-(5-ethoxypyridin-3-yl)naphthalen-1-yl]methyl]piperazin-1-yl]benzamide]", "values": [
      {"measurement": "ASMS ratio (%) n = 1", "result": 0.0, "unit": "%"},
      {"measurement": "ASMS ratio (%) n = 2", "result": 0.0, "unit": "%"}
    ]},
    {"compound": "CCOc1cccc(-c2csc(CN3CCN(c4ccc(C(=O)NS(=O)(=O)C(C)(C)C)cc4)CC3)c2)c1", "note": "[Compound B2L067-01]", "values": [
      {"measurement": "ASMS ratio (%) n = 1", "result": 0.0, "unit": "%"},
      {"measurement": "ASMS ratio (%) n = 2", "result": 0.0, "unit": "%"}
    ]},
    {"compound": "CCOc1cncc(-c2csc(CN3CCN(c4ccc(C(=O)NS(=O)(=O)C(C)(C)C)cc4)CC3)c2)c1", "note": "[Compound B2L068-01]", "values": [
      {"measurement": "ASMS ratio (%) n = 1", "result": 0.0, "unit": "%"},
      {"measurement": "ASMS ratio (%) n = 2", "result": 0.0, "unit": "%"}
    ]}
  ]
}
